The results in this text go back to patent publication US20260115209A1, “COMBINATION THERAPY INCLUDING COX-2 INHIBITOR FOR THE TREATMENT OF CANCER” (THE REGENTS OF THE UNIVERSITY OF CALIFORNIA, priority 2022, published 2026).

Holding throughout (assay type): cell-based
One assay relates to WiDr. As to the kind of experiment: Cell viability assay (CellTiter-Glo), GI50, 3-day treatment. The settings on record: Homo sapiens, 72 h; WiDr (BRAF^V600E CRC); 50% growth inhibition after 3 days of treatment compared to control; read-out: GI50 concentrations. As to the method: (§1) To assess the growth/survival response of cell lines to single or combinatorial drug treatments, we used CellTiter-Glo cell viability assay (Promega; cat #G7571). Cell culture and luminescence readouts were performed in 96- and 384-well plates after 3-day treatments. GI50 corresponds to the concentration of a given drug that causes 50% inhibition of cell growth (GI50). The effects of drug combinations on cell growth were assessed by calculating fold change in VEM-sensitivity and combination index (C.I.) that were experimentally measured from ≥9 individual datapoints around drugs' GI50, i.e. at GI50, 0.5×GI50, 2×GI50 concentrations of each drug per drug combination experiment. To address the particular effects of some drug treatments on some cell lines, the choice of experimental datapoints centered around drugs' GI50 effects was adjusted by including individual datapoints ranging from ≥GI25 to ≤GI75, leading to calculate fold change in VEM-sensitivity and combination index (C.I.) from 12 to 20 individual datapoints, as previously explained (7).

Another assay concerns KM20. Described as above. The following applies: 72 h; KM20 (BRAF^V600E CRC); 50% growth inhibition after 3 days of treatment compared to control; read-out: GI50 concentrations. The procedure:
as §1

The next assay deals with LS411N. Described as above. The settings on record: Homo sapiens, LS-411N, 72 h; LS411N (BRAF^V600E CRC); 50% growth inhibition after 3 days of treatment compared to control; read-out: GI50 concentrations. As to the method:
as §1

The next assay relates to RKO1. The assay is described as above. The settings on record: 72 h; RKO1 (BRAF^V600E CRC); 50% growth inhibition after 3 days of treatment compared to control; read-out: GI50 concentrations. As to the method: as §1
Another assay deals with Sk-Mel-28. The description is as above. The settings on record: Homo sapiens, 72 h; Sk-Mel-28 (BRAF^V600E melanoma); 50% growth inhibition after 3 days of treatment compared to control; read-out: GI50 concentrations. As to the method:
as §1

Another assay deals with A375. The assay is described as above. The settings on record: Homo sapiens, A-375, 72 h; A375 (BRAF^V600E melanoma); 50% growth inhibition after 3 days of treatment compared to control; read-out: GI50 concentrations. As to the method:
as §1

The next assay deals with VACO432. The assay is described as above. The following applies: 72 h; VACO432 (BRAF^V600E CRC); 50% growth inhibition after 3 days of treatment compared to control; read-out: GI50 concentrations. As to the method: as §1
A further assay has as its system SNUC5. Described as above. The following applies: 72 h; SNUC5 (BRAF^V600E CRC); 50% growth inhibition after 3 days of treatment compared to control; read-out: GI50 concentrations. As to the method:
as §1

For the next assay, the system named is HT29. The description is as above. The settings on record: Homo sapiens, HT-29, 72 h; HT29 (BRAF^V600E CRC); 50% growth inhibition after 3 days of treatment compared to control; read-out: GI50 concentrations. The procedure: as §1
For a further assay, the system named is OUMS23. The assay is described as above. The following applies: OUMS-23, 72 h; OUMS23 (CRC MAP3K8^amp); 50% growth inhibition after 3 days of treatment compared to control; read-out: GI50 concentrations. The procedure: as §1
The test system of a further assay is LIM2405. Described as above. The settings on record: 72 h; LIM2405 (BRAF^V600E CRC); 50% growth inhibition after 3 days of treatment compared to control; read-out: GI50 concentrations. The procedure: as §1
The subject of the next assay is SFK. As to the kind of experiment: Western blot of SFK activation (Y419 phosphorylation). The following applies: BRAF^V600E CRC cell lines. As to the method:
For samples to be analyzed with the HT-KAM platform, cells at ˜85% confluency were washed three times with cold PBS and lysed with freshly prepared 1× cell lysis buffer (1 ml per 2.5×10^6 cells) (lOX Cell Lysis Buffer, Cell Signaling; cat. #9803) complemented with 1× of Halt Protease & Phosphatase (100×, ThermoScientific; cat. #1861281). Cell lysates were collected and spun down at 14,000 rpm for 15 min at 4° C. and supernatants stored at −80° C. For samples to be analyzed by western blot, cell lysates were prepared with RIPA lysis buffer (150 mM NaCl, 0.1% SDS, 1% Nonidet P40, 1% sodium deoxycholate and 10 mM sodium phosphate, pH 7.2) supplemented with protease and phosphatase inhibitors. After clearing by centrifugation at 12,000 rpm for 10 minutes at 4° C., the lysates were analyzed as described in the respective experiments.
For western-blot, samples were denatured by boiling in 1× Laemmli buffer and run on an 8% SDS-PAGE gel. After transfer onto a PVDF membrane and blocking with 3% BSA, the membranes were incubated with primary antibodies overnight at 4° C., washed 3 times with TBST (Tris-buffered saline containing 0.05% Tween-20), incubated with secondary antibodies for 1 hour at room temperature and developed using chemoluminescence (cat #32209 from Pierce).
Antibodies anti-HSP90 was procured from Santa Cruz Biotechnologies (H-114, cat #7947). […]

Take `CCCS(=O)(=O)Nc1ccc(F)c(C(=O)c2c[nH]c3ncc(-c4ccc(Cl)cc4)cc23)c1F` [vemurafenib, N-[3-[5-(4-chlorophenyl)-1H-pyrrolo[2,3-b]pyridine-3-carbonyl]-2,4-difluorophenyl]propane-1-sulfonamide]: the GI50 with WiDr is 1500 nM; with KM20, 2000 nM; with LS411N, 1450 nM; with RKO1, 1700 nM; in the assay on Sk-Mel-28, 150 nM; with A375 it was 10 nM. Besides, the GI50 is 1150 nM in the assay on VACO432; 2250 nM in the assay on SNUC5; 1750 nM in the assay on HT29; 1400 nM in the assay on OUMS23; 150 nM in the assay with LIM2405. In addition, the “SFK activation (phosphorylation of Y419)” value with SFK is “increased SFK activation”.
